Measurements taken from patent US20060128667A1, “Hydroxyphosphonates and phosphonophosphates as apolipoprotein e modulators” (priority 2002, published 2006).
Like-named read-outs stand apart in the source and are kept apart here.

Test system: apoE secretion by THP-1 cell line
Format: cell-based, human
Conditions: THP-1 cells, 3 days
Text: The hydroxyphosphonates (Ia) and phosphonophosphates (Ib) of the invention can modulate (increase or decrease) the apoE production in plasma and in tissues. The activities of the compounds can be determined in an in vitro cell assay consisting in determining the effect of the test compound in modulating the secretion of apoE by an apoE secreting cell line (e.g., a monocyte-macrophage cell line such as the THP-1 cell line; a liver derived cell line such as the HepG2 cell line, an intestinal derived cell line such as the CaCo2 cell line or a brain derived cell line such as the astrocytoma CCF-STTG1 cell line).
THP-1 cell line (ATCC TIB-202) are cultured in RPMI 1640 (with 2 mM of L-glutamine and 2 g/l of glucose, Invitrogen) supplemented with 2 g/l of sodium hydrogen carbonate (Fluka), 10 U/ml of penicillin, 10 μg/ml of streptomycin (Penicillin-Streptomycin, Invitrogen), 20 μM of 2-mercaptoethanol (Fluka) and 10% FCS (Amimed). Cells are incubated at 37° C. and 5% CO2.
Cells are seeded in 24 well tissue culture plates (Falcon), 2×10^5 cells in 500 μl of culture medium per well or 6 well plates for RT-PCR purpose, 1×10^6 cells in 2.5 ml of medium. PMA (Phorbol 12-myristate 13-acetate, Alexis), (stock in DMSO (Fluka) at 1 mg/ml) and other compounds are diluted in ethanol and added to the cells at an ethanol final concentration not exceeding 1%. Same volume of ethanol is added in controls. Plates are incubated for 3 days at 37° C. and 5% CO2 to allow cell differentiation and apoE secretion.
Medium contained in the wells is harvested and centrifuged 5 min at 1200 rpm. Supernatants are store at −20° C. until apoE quantification. The cell pellets are resuspended in PBS and counted with a Z1 Coulter Counter. After a wash with PBS, adherent cells in the well bottoms are detached with trypsin-EDTA solution 10× (Invitrogen) diluted in PBS. The reaction is stopped with the addition of culture medium and the detached cells are counted.
ApoE was quantified by ELISA. 96 well plates (Costar) are coated with 5% of gelatine (from porcine skin, Fluka) in carbonate-bicarbonate buffer (Sigma) for 1 hour at 37° C. After removing the coating solution, 100 μl of THP-1 supernatant are added per well, diluted 5 times in buffer (PBS, 1% Top-Block (Juro), 0.1% Tween 20 (Fluka)). The incubation last 1 hour at 37° C., then the wells are washed 3 times with 200 μl of buffer. Plates are incubated for 1 hour at 37° C. with continuous stirring with the primary antibody (goat anti-human apoE IgG, Calbiochem) at a 10000-time dilution in buffer, 100 μl per well. After 3 washes, plates are incubated with the secondary antibody (rabbit anti-goat-IgG peroxidase conjugated, Sigma) diluted 5000 times, 100 μl per well, at 37° C. with shaking. Then the wells are washed 5 more times and the detection is achieved by adding 100 μl per well of o-phenylenediamine dihydrochloride (Sigma) and incubated for 15-20 minutes with shaking at room temperature. When the appropriated colour is reached, the reaction is stopped by adding 50 μl per well of 3 M sulfuric acid (Fluka) with shaking for 1 minute at room temperature. The absorbance is read at 492 nm versus 620 nm with a microplate photometer (Anthos Reader 2001).

| SMILES | % ApoE Change (compound 25 μM, 1.25 nM PMA) [%] | % ApoE Change (compound 25 μM, 2.5 nM PMA) [%] | % ApoE Change (compound 50 μM, 1.25 nM PMA) [%] | % ApoE Change (compound 50 μM, 2.5 nM PMA) [%] | % ApoE Change (compound 100 μM, 1.25 nM PMA) [%] | % ApoE Change (compound 100 μM, 2.5 nM PMA) [%] |
| --- | --- | --- | --- | --- | --- | --- |
| CCOP(=O)(OCC)OC(c1ccc(OCc2cccnc2)cc1)P(=O)(OCC)OCC (stereo not drawn) [Diethyl 1-(diethoxy-phosphinyloxy)-1-[4-(pyridin-3-yl-methoxy)-pheny]-methylphosphonate] | 95 | 179 | 189 | 245 | 535 | 434 |
| CCOP(=O)(OCC)C(O)c1ccc(OCCCN2C(=O)c3ccccc3C2=O)cc1 (stereo not drawn) [Diethyl 1-hydroxy-1-{4-[3-N-phthalimido-propoxy]-phenyl}-methylphosphonate] | 543 | 304 | 961 | 396 | 1436 | 465 |
| CCOP(=O)(OCC)OC(c1ccc(-c2ccccc2)cc1)P(=O)(OCC)OCC (stereo not drawn) [Diethyl 1-(diethoxy-phosphinyloxy)-1-(biphenyl-4-yl)-methyiphosphonate] | 172 | 138 | 198 | 119 | 142 | 71 |
| CCOP(=O)(OCC)C(O)c1ccc(OCc2ccccn2)cc1 (stereo not drawn) [Diethyl 1-hydroxy-1-[4-(pyridin-2-yl-methoxy)-phenyl]-methlyphosphonate] | −9 | 0 | 24 | 3 | 76 | 100 |
| CCOP(=O)(OCC)OC(c1cccc(OCCCCCN2C(=O)c3ccccc3C2=O)c1)P(=O)(OCC)OCC (stereo not drawn) [Diethyl 1-(diethoxy-phosphinyloxy)-1-[3-(5-N-phthalimido-pentoxy)-phenyl]-methylphosphonate] | 3375 | 1196 | 1526 | 310 | −93 | −92 |
| CCOP(=O)(OCC)OC(c1cc(OC)c2c(c1)OCO2)P(=O)(OCC)OCC (stereo not drawn) [Diethyl 1-(diethoxy-phosphinyloxy)-1-[4-(3-methoxy-4,5-methylenedioxy)-phenyl]-methylphosphonate] | −19 | 7 | 3 | −5 | 33 | 40 |
| CCOP(=O)(OCC)OC(c1cccc(OCc2cccnc2)c1)P(=O)(OCC)OCC (stereo not drawn) [Dietbyl 1-(diethoxy-phosphinyloxy)-1-[3-(pyridin-3-yl-methoxy)-phenyl]-methylphosphonate] | 52 | 15 | 551 | 6 | 1351 | 98 |
